The target of assay [1] is T1, eIF-2-alpha kinase GCN2 (Homo sapiens, UniProt Q9P2K8). The assay is described as follows: GCN2 Enzyme Inhibition (ATP 10 uM). Here is the method: (§1) The inhibitory activity of the Example compounds towards GCN2 enzyme was measured according to the description below, using a LanthaScreen TR-FRET (Time Resolved Fluorescence Resonance Energy Transfer) Kinase Activity assay distributed by ThermoFisher Scientific. The full-length human GCN2 enzyme (UniProt accession number Q9P2K8) was used for all experiments (Carna Bioscience). The TR-FRET pair was composed of GFP-eIF2α and LanthaScreen Terbium-labeled anti-peIF2α (pSer52) Antibody. […] Full inhibition (3000 nM commercial reference inhibitor) and DMSO vehicle control wells were also included on the same plate. All volumes were normalized to the final DMSO concentration of 2% of the reaction volume. Next, 5 μL of H2O was added to each well of the plate.
T1 sequence (Q9P2K8 whole entry): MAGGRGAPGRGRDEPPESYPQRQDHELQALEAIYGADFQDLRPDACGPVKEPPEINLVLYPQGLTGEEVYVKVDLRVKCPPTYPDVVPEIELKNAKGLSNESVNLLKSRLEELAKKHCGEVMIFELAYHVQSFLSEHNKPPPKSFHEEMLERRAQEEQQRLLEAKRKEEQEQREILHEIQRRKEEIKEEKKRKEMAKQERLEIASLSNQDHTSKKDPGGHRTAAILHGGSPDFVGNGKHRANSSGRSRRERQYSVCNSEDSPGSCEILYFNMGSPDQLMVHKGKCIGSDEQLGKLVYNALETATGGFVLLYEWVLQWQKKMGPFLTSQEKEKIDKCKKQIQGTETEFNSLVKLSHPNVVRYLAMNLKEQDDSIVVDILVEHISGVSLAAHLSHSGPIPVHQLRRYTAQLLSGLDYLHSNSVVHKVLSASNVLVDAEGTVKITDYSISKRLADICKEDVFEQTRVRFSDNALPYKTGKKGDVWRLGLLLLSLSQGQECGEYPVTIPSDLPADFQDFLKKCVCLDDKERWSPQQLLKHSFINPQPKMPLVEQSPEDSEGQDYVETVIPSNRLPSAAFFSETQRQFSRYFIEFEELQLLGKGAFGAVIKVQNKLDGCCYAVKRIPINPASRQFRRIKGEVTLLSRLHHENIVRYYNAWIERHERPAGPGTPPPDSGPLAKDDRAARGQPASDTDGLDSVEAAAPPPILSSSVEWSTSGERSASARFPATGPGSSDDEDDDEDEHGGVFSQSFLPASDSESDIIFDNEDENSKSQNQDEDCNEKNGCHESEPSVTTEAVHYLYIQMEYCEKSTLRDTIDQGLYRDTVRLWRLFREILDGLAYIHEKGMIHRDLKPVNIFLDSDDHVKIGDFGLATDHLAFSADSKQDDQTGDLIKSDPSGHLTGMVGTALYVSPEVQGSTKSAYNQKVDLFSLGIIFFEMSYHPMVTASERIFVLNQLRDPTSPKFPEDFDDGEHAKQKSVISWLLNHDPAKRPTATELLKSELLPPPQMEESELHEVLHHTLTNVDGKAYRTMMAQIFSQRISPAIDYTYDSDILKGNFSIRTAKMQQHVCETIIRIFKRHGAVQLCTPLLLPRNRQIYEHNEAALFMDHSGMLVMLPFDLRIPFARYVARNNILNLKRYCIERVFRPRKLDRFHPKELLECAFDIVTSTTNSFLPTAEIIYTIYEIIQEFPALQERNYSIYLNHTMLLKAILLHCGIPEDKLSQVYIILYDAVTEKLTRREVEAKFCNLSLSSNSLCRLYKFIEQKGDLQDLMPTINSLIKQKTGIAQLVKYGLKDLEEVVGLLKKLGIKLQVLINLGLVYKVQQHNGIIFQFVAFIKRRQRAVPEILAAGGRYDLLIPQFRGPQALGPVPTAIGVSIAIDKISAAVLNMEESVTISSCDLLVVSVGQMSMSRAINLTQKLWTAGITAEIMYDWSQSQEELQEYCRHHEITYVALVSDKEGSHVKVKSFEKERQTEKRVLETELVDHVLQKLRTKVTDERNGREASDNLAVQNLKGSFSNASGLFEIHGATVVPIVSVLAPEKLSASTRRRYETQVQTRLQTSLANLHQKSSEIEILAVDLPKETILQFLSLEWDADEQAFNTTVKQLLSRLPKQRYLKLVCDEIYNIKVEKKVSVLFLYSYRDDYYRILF

Assay [2] concerns the target T1, eIF-2-alpha kinase GCN2. In words: GCN2 Enzyme Inhibition (ATP 300 uM). Here is the method: as §1

As a reminder, the IC50 is the point on the concentration scale where inhibition reaches its midpoint. What is called Ki is a measure of affinity in units of concentration, obtained from inhibition or displacement. Lower therefore signals a stronger hold on the target. Turning to `COc1ncc(Cl)cc1S(=O)(=O)Nc1ncc(F)c(C#Cc2cnc(N)nc2)c1F` [US20230271939, Example 10], on eIF-2-alpha kinase GCN2 [1], the midpoint of inhibition, the IC50, lay at 19.1 nM and the Ki is 6.1 nM. At eIF-2-alpha kinase GCN2 [2], this compound had a concentration for half-maximal inhibition (IC50) of 57.3 nM and a Ki of 0.9 nM.

These data come from BindingDB's records for patent US20230271939 (Ip2Ipo Innovations, 2023).
